Measured values: PubChem BioAssay (NCI)
Several values for one entry are separate records, joined by “and”; a condition that tells them apart may be missing. Identical values can stand only once.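 These data come from cells grown in 96-well plates and exposed to compound for 48 hours at five concentrations. Abbreviation: GI50, concentration required for 50% inhibition of growth. TGI is the concentration that stops growth completely.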

Assays:
Assay in all cases: NCI tumour cell line growth inhibition, 48 h
A498 renal = test system: A498 renal
A549 NSCLC = test system: A549 NSCLC
BT-549 breast = test system: BT-549 breast
DLD-1 colon = test system: DLD-1 colon
DMS 114 small cell lung = test system: DMS 114 small cell lung
HCC-2998 colon = test system: HCC-2998 colon
HCT-15 colon = test system: HCT-15 colon
HL-60(TB) leukemia = test system: HL-60(TB) leukemia
MDA-N = test system: MDA-N
NCI/ADR-RES ovarian = test system: NCI/ADR-RES ovarian
OVCAR-8 ovarian = test system: OVCAR-8 ovarian
P388 leukemia = test system: P388 leukemia
RXF 393 renal = test system: RXF 393 renal
SK-MEL-28 melanoma = test system: SK-MEL-28 melanoma
SN12C renal = test system: SN12C renal
SNB-19 CNS = test system: SNB-19 CNS

Structure (SMILES): C/C(=C\COc1ccc2ccc(=O)oc2c1)C1=CC(=O)C(C)(C)O1
- GI50 (A498 renal): 2790 nM
- TGI (A498 renal): 7.32 µM and 9.56 µM
- GI50 (A549 NSCLC): 4.18 µM
- TGI (A549 NSCLC): 47.2 µM and 51.9 µM
- TGI (BT-549 breast): 19.1 µM
- TGI (DLD-1 colon): 30.8 µM
- TGI (DMS 114 small cell lung): 9.44 µM
- GI50 (HCC-2998 colon): 2850 nM
- TGI (HCC-2998 colon): 5.76 µM and 8.34 µM
- TGI (HCT-15 colon): 15.9 µM and 19.4 µM
- GI50 (HL-60(TB) leukemia): 1760 nM
- TGI (HL-60(TB) leukemia): 5.09 µM and 16.9 µM
- TGI (MDA-N): 16 µM
- GI50 (NCI/ADR-RES ovarian): 3.81 µM
- TGI (NCI/ADR-RES ovarian): > 100 µM and 35.6 µM
- GI50 (OVCAR-8 ovarian): 2180 nM
- TGI (P388 leukemia): 8.39 µM
- GI50 (RXF 393 renal): 2390 nM
- TGI (RXF 393 renal): 12.2 µM and 5.61 µM
- GI50 (SK-MEL-28 melanoma): 4.82 µM
- TGI (SK-MEL-28 melanoma): 18.3 µM and 10.1 µM
- GI50 (SN12C renal): 3.34 µM
- TGI (SN12C renal): 14.1 µM and 10.8 µM
- GI50 (SNB-19 CNS): 2940 nM
- TGI (SNB-19 CNS): 8.22 µM and 30.5 µM
